ChEMBL document CHEMBL1909046, “DrugMatrix in vitro pharmacology data”
pIC50, pKi: −log10 of the molar value.

How the values were obtained:
[1] = DRUGMATRIX: Leukotriene, BLT (LTB4) radioligand binding (ligand: [3H]LTB4); type: cell membranes, Membrane; conditions: u-937; Not Active = under 50% inhibition at 10 µM
[2] = DRUGMATRIX: Sigma2 radioligand binding (ligand: [3H] Ifenprodil); type: cell membranes, Rattus norvegicus, Wistar, Brain, Membrane; conditions: Not Active = under 50% inhibition at 10 µM
[3] = DRUGMATRIX: Phosphodiesterase PDE4 enzyme inhibition (substrate: [3H]cAMP + cAMP); conditions: u-937, Not Active = under 50% inhibition at 10 µM
[4] = target: Mitogen-activated protein kinase 1 (Homo sapiens, UniProt P28482); test: DRUGMATRIX: Protein Serine/Threonine Kinase, ERK2 enzyme inhibition (substrate: Myelin Basic Protein); design: species or system Escherichia coli; conditions: Not Active = under 50% inhibition at 10 µM
Mitogen-activated protein kinase 1, sequence (P28482 whole entry): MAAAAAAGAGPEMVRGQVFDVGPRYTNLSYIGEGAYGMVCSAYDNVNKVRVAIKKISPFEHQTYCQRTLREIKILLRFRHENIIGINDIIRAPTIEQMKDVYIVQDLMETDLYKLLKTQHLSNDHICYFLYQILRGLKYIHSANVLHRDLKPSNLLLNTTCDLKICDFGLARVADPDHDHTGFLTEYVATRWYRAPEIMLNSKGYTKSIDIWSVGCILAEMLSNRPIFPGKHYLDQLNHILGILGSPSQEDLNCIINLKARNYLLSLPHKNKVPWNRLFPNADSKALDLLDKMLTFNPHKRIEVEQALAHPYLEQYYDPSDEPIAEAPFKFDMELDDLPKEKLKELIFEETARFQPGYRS

[5] = target: Protein kinase C alpha type (Homo sapiens, UniProt P17252); type: cell-based; conditions: sf9;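 note: inhibition of PKCalpha kinase activity measured in an enzyme assay with histone as the phosphorylation substrate; in other assays of this panel Not Active means under 50% inhibition at 10 µM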
[6] = target: Sodium-dependent dopamine transporter (Homo sapiens, UniProt Q01959); test: DRUGMATRIX: Dopamine Transporter radioligand binding (ligand: [125I] RTI-55); type: cell membranes, CHO-K1, Membrane; conditions: Not Active = under 50% inhibition at 10 µM; for pIC50: read-out: IC50; for pKi: read-out: Ki; for IC50: cho-k1
Sodium-dependent dopamine transporter, sequence (Q01959 whole entry): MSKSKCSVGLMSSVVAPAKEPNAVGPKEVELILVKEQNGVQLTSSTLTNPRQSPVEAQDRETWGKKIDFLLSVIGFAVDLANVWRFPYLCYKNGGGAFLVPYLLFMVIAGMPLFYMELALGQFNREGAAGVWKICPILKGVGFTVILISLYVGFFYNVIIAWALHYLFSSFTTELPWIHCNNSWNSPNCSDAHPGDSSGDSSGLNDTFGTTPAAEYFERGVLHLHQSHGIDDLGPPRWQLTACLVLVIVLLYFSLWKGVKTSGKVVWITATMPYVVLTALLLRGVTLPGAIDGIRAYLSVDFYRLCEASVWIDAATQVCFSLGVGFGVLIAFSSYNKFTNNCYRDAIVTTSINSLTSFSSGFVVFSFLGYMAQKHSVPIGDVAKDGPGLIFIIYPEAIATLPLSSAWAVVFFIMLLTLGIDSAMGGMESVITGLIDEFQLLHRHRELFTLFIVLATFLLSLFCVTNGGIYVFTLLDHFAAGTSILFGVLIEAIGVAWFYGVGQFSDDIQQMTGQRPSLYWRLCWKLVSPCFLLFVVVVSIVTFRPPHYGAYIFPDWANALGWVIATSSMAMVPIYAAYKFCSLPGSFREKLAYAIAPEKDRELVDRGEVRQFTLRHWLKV

Cc1c(C)c2c(c(C)c1O)CCC(C)(CN1CCN(c3cc(N4CCCC4)nc(N4CCCC4)n3)CC1)O2 (centres undefined)
IC50 [1]: Not Active | Ki [1]: Not Active | IC50 [2]: Not Active | Ki [2]: Not Active | IC50 [3]: Not Active | Ki [3]: Not Active | IC50 [4]: Not Active | IC50 [5]: Not Active | pIC50 [6]: 4.87 | pKi [6]: 4.97

COc1ccc(CCN(C)CCCC(C#N)(c2ccc(OC)c(OC)c2)C(C)C)cc1OC (centres undefined)
IC50 [1]: Not Active | Ki [1]: Not Active | pIC50 ([2]; read-out: IC50): 5.55 | pKi ([2]; read-out: Ki): 5.76 | IC50 [3]: Not Active | Ki [3]: Not Active | IC50 [4]: Not Active | IC50 [5]: Not Active | IC50 [6]: Not Active

CC(C)Cc1ccc([C@@H](C)C(=O)O)cc1 [(R)-IBUPROPHEN]
IC50 [1]: Not Active | Ki [1]: Not Active | IC50 [2]: Not Active | Ki [2]: Not Active | IC50 [3]: Not Active | Ki [3]: Not Active | IC50 [4]: Not Active | IC50 [5]: Not Active | IC50 [6]: Not Active

CN(C)CCOC(c1ccccc1)c1ccccc1 [DIPHENHYDRAMINE]
IC50 [4]: Not Active | IC50 [5]: Not Active | IC50 [6]: Not Active

Clc1ccc(COC(Cn2ccnc2)c2ccc(Cl)cc2Cl)cc1 (centres undefined) [ECONAZOLE]
IC50 [4]: Not Active | IC50 [5]: Not Active

CCN(CC)CCOc1ccc(/C(=C(/Cl)c2ccccc2)c2ccccc2)cc1 [ENCLOMIPHENE]
IC50 [4]: Not Active | IC50 [5]: Not Active

Fc1ccc(C(c2ccc(F)cc2)N2CCN(C/C=C/c3ccccc3)CC2)cc1 [FLUNARIZINE]
IC50 [4]: Not Active | IC50 [5]: Not Active | pIC50 [6]: 6.23 | pKi [6]: 6.33

CNCCC(Oc1ccc(C(F)(F)F)cc1)c1ccccc1 (centres undefined) [FLUOXETINE]
IC50 [4]: Not Active | IC50 [5]: Not Active | IC50 [6]: Not Active

Cc1ccc(NC(=O)c2ccc(CN3CCN(C)CC3)cc2)cc1Nc1nccc(-c2cccnc2)n1 [IMATINIB]
IC50 [5]: Not Active | IC50 [6]: Not Active

CC(C)Oc1ccc2c(=O)c(-c3ccccc3)coc2c1 [IPRIFLAVONE]
IC50 [1]: Not Active | Ki [1]: Not Active | IC50 [2]: Not Active | Ki [2]: Not Active | IC50 [3]: Not Active | Ki [3]: Not Active | IC50 [4]: Not Active | IC50 [5]: Not Active | IC50 [6]: Not Active

CC(C)NCC(O)c1ccc(O)c(O)c1 (centres undefined) [ISOPROTERENOL]
IC50 [1]: Not Active | Ki [1]: Not Active | IC50 [2]: Not Active | Ki [2]: Not Active | IC50 [3]: Not Active | Ki [3]: Not Active | IC50 [4]: Not Active | IC50 [5]: Not Active | IC50 [6]: Not Active

CNC1(c2ccccc2Cl)CCCCC1=O (centres undefined) [KETAMINE]
IC50 [1]: Not Active | Ki [1]: Not Active | IC50 [2]: Not Active | Ki [2]: Not Active | IC50 [3]: Not Active | Ki [3]: Not Active | IC50 [4]: Not Active | IC50 [5]: Not Active | IC50 [6]: Not Active

N#Cc1ccc(C(c2ccc(C#N)cc2)n2cncn2)cc1 [LETROZOLE]
IC50 [1]: Not Active | Ki [1]: Not Active | IC50 [2]: Not Active | Ki [2]: Not Active | IC50 [3]: Not Active | Ki [3]: Not Active | IC50 [4]: Not Active | IC50 [5]: Not Active | IC50 [6]: Not Active

CCN1CCC[C@H]1CNC(=O)c1cc(S(N)(=O)=O)ccc1OC [LEVOSULPIRIDE]
IC50 [1]: Not Active | Ki [1]: Not Active | IC50 [2]: Not Active | Ki [2]: Not Active | IC50 [3]: Not Active | Ki [3]: Not Active | IC50 [4]: Not Active | IC50 [5]: Not Active | IC50 [6]: Not Active

CCN(CC)CC(=O)Nc1c(C)cccc1C [LIDOCAINE]
IC50 [1]: Not Active | Ki [1]: Not Active | IC50 [2]: Not Active | Ki [2]: Not Active | IC50 [3]: Not Active | Ki [3]: Not Active | IC50 [4]: Not Active | IC50 [5]: Not Active | IC50 [6]: Not Active

O=C1Nc2ccc(Cl)cc2C(c2ccccc2Cl)=NC1O (centres undefined) [LORAZEPAM]
IC50 [1]: Not Active | Ki [1]: Not Active | IC50 [2]: Not Active | Ki [2]: Not Active | IC50 [3]: Not Active | Ki [3]: Not Active | IC50 [4]: Not Active | IC50 [5]: Not Active | IC50 [6]: Not Active

CO[C@@H]1[C@@H](OC)[C@H](C)[C@@](O)(CC(=O)O)O[C@H]1[C@H](C)[C@H]1O[C@@]2(CC[C@@](C)([C@H]3CC[C@@](C)([C@@H]4O[C@@H]([C@H]5O[C@](C)(O)[C@H](C)C[C@@H]5C)C[C@@H]4O[C@@H]4C[C@H](OC)[C@@H](OC)[C@H](C)O4)O3)O2)C[C@H](O)[C@H]1C [MADURAMICIN ACID]
IC50 [1]: Not Active | Ki [1]: Not Active | IC50 [2]: Not Active | Ki [2]: Not Active | IC50 [3]: Not Active | Ki [3]: Not Active | IC50 [4]: Not Active | IC50 [5]: Not Active | IC50 [6]: Not Active

COc1c2occc2cc2ccc(=O)oc12 [METHOXSALEN]
IC50 [1]: Not Active | Ki [1]: Not Active | IC50 [2]: Not Active | Ki [2]: Not Active | IC50 [3]: Not Active | Ki [3]: Not Active | IC50 [4]: Not Active | IC50 [5]: Not Active | IC50 [6]: Not Active

C[C@H]1C[C@@H]2[C@H]([C@@H](O)C[C@@]3(C)[C@H]2CC[C@]3(O)C(=O)CO)[C@@]2(C)C=CC(=O)C=C12 [METHYLPREDNISOLONE]
IC50 [1]: Not Active | Ki [1]: Not Active | IC50 [2]: Not Active | Ki [2]: Not Active | IC50 [3]: Not Active | Ki [3]: Not Active | IC50 [4]: Not Active | IC50 [5]: Not Active | IC50 [6]: Not Active

Cc1cccc(C)c1OCC(C)N (centres undefined) [MEXILETINE]
IC50 [1]: Not Active | Ki [1]: Not Active | IC50 [2]: Not Active | Ki [2]: Not Active | IC50 [3]: Not Active | Ki [3]: Not Active | IC50 [4]: Not Active | IC50 [5]: Not Active | IC50 [6]: Not Active

Nc1cc(N2CCCCC2)nc(N)[n+]1[O-] [MINOXIDIL]
IC50 [1]: Not Active | Ki [1]: Not Active | IC50 [2]: Not Active | Ki [2]: Not Active | IC50 [3]: Not Active | Ki [3]: Not Active | IC50 [4]: Not Active | IC50 [5]: Not Active | IC50 [6]: Not Active

CO[C@H]1/C=C/O[C@@]2(C)Oc3c(C)c(O)c4c(O)c(c(/C=N/N5CCN(C6CCCC6)CC5)c(O)c4c3C2=O)NC(=O)/C(C)=C\C=C\[C@H](C)[C@H](O)[C@@H](C)[C@@H](O)[C@@H](C)[C@H](OC(C)=O)[C@@H]1C [RIFAPENTINE]
IC50 [1]: Not Active | Ki [1]: Not Active | IC50 [2]: Not Active | Ki [2]: Not Active | IC50 [3]: Not Active | Ki [3]: Not Active | IC50 [4]: Not Active | IC50 [5]: Not Active | IC50 [6]: Not Active

CCCCOc1cc(CC2CNC(=O)N2)ccc1OC (centres undefined) [RO-201724]
IC50 [1]: Not Active | Ki [1]: Not Active | IC50 [2]: Not Active | Ki [2]: Not Active | pIC50 ([3]; read-out: IC50): 4.95 | IC50 [4]: Not Active | IC50 [5]: Not Active | IC50 [6]: Not Active

CC[C@@H](C(=O)[C@@H](C)[C@@H](O)[C@H](C)[C@@H]1O[C@@H]([C@@H](CC)C(=O)O)CC[C@@H]1C)[C@H]1O[C@]2(C=C[C@@H](O)[C@]3(CC[C@@](C)([C@H]4CC[C@](O)(CC)[C@H](C)O4)O3)O2)[C@H](C)C[C@@H]1C [SALINOMYCIN]
IC50 [1]: Not Active | Ki [1]: Not Active | IC50 [2]: Not Active | Ki [2]: Not Active | IC50 [3]: Not Active | Ki [3]: Not Active | IC50 [4]: Not Active | IC50 [5]: Not Active | IC50 [6]: Not Active

O=C(Oc1ccccc1C(=O)O)c1ccccc1O [SALSALATE]
IC50 [1]: Not Active | Ki [1]: Not Active | IC50 [2]: Not Active | Ki [2]: Not Active | IC50 [3]: Not Active | Ki [3]: Not Active | IC50 [4]: Not Active | IC50 [5]: Not Active | IC50 [6]: Not Active

CN[C@H]1CC[C@@H](c2ccc(Cl)c(Cl)c2)c2ccccc21 [SERTRALINE]
IC50 [4]: Not Active | IC50 [5]: Not Active
